In BindingDB's records for patent US20240051954 (Novartis, 2024):
pIC50: −log10 of the molar value.

Molecular target: T1, Cyclic GMP-AMP synthase [147-522] (Homo sapiens, UniProt Q8N884)
T1 construct: 147-522
Assay: Quantification of cGAS Protein Inhibition
Procedure: The enzyme solution was transferred into the reagent buffer to give a final concentration of 30 nM. […] The reaction plates were then centrifuged at 1000 rpm for 1 minute and incubated at room temperature for 1 h. […] The concentration of cGAMP was measured on a LC-MS/MS system consisting of a THERMO Dionex Ultimate LC system with a high pressure pump, an autosampler, a column heating compartment (Reinach, Switzerland) and a SCIEX Triple Quad 5500 (Framingham, MA, USA) mass spectrometer for detection. The sample plates were centrifuged for 10 minutes at 2000 rpm. Up to three plates were placed in the autosampler for injection. […] An isocratic flow of 1.0 mL/min solvent (60% ACN, 8 mM ammonium acetate, 5 mM ammonium hydroxide, 0.04% acetic acid) was applied and sprayed into the ion source of the mass spectrometers. The MS parameters were optimized based on the properties of the compounds to be detected and run in positive multi-reaction mode (MRM) based on the mass transitions. LC and MS parameters were also optimized to allow for a sample-to-sample measuring time of approximately 75 sec and a run time of 8 hours per 384-well plate. All data were analyzed with Excel; and the dose response curves were generated using the auto fitting function of XLfit.

T1 sequence (Q8N884 147-522): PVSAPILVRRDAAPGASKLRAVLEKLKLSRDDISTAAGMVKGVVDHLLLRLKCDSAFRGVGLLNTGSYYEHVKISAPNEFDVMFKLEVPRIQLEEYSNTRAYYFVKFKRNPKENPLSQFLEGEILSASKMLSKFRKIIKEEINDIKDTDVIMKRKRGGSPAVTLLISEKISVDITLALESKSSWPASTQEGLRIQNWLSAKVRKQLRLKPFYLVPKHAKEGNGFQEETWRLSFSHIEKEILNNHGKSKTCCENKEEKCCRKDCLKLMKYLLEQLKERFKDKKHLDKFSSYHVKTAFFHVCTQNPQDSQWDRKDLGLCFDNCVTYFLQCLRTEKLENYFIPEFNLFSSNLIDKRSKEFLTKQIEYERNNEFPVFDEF

pIC50: 6.92
Compound: COc1nc2c(-n3ccnc3)c(-c3nnc(C(O)C(F)F)[nH]3)n(C)c2cc1Cl (stereo unspecified) [US20240051954, Example 21]
